Results reported in ChEMBL document CHEMBL1201862, “PubChem BioAssay data set” (2004).
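The compound was tested at five concentrations on cells cultured in 96-well plates, with a 48-hour exposure period. GI50 marks 50% less growth.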 Activity calls are given as the source filed them. Cut-off read from the data, not from the text of the source: active = GI50 up to about 1.1 µM and inactive = higher.

Legend:
Assay in all cases: NCI tumour cell line growth inhibition, 48 h
NCI-H226 = tested on: NCI-H226
SK-OV-3 = tested on: SK-OV-3
HT-29 = tested on: HT-29
786-0 = tested on: 786-0
OVCAR-8 = tested on: OVCAR-8
KM12 = tested on: KM12
UACC-257 = tested on: UACC-257
UO-31 = tested on: UO-31
SK-MEL-28 = tested on: SK-MEL-28
NCI/ADR-RES = tested on: NCI/ADR-RES
LOX IMVI = tested on: LOX IMVI
SR = tested on: SR
RXF 393 = tested on: RXF 393
SK-MEL-5 = tested on: SK-MEL-5
OVCAR-4 = tested on: OVCAR-4
RPMI-8226 = tested on: RPMI-8226
UACC-62 = tested on: UACC-62
MOLT-4 = tested on: MOLT-4
T47D = tested on: T47D
SF-539 = tested on: SF-539

CCN(CC)CCn1nc(N)c2nc3cc(Cl)ccc3nc21
GI50 (NCI-H226): 70.1 µM (inactive) | GI50 (SK-OV-3): > 100 µM (inactive) | GI50 (HT-29): 35.3 µM (inactive) | GI50 (786-0): 62.8 µM (inactive) | GI50 (OVCAR-8): 42.4 µM (inactive) | GI50 (KM12): 94.8 µM (inactive) | GI50 (UACC-257): 37.5 µM (inactive) | GI50 (UO-31): 23.8 µM (inactive) | GI50 (SK-MEL-28): 76.2 µM (inactive) | GI50 (NCI/ADR-RES): 35.3 µM (inactive) | GI50 (LOX IMVI): 51.2 µM (inactive) | GI50 (SR): 82.8 µM (inactive) | GI50 (RXF 393): 88.9 µM (inactive) | GI50 (SK-MEL-5): 26.1 µM (inactive) | GI50 (OVCAR-4): > 100 µM (inactive) | GI50 (RPMI-8226): 89.9 µM (inactive) | GI50 (UACC-62): 45.9 µM (inactive) | GI50 (MOLT-4): 33.4 µM (inactive) | GI50 (T47D): > 100 µM (inactive)

COc1ccc(CC2OC3(CCCCC3)CC3CCCCN32)cc1 (configuration not stated)
GI50 (NCI-H226): 53 µM (inactive) | GI50 (SK-OV-3): > 100 µM (inactive) | GI50 (HT-29): 57.4 µM (inactive) | GI50 (786-0): > 100 µM (inactive) | GI50 (OVCAR-8): 40.9 µM (inactive) | GI50 (KM12): > 100 µM (inactive) | GI50 (UACC-257): > 100 µM (inactive) | GI50 (UO-31): > 100 µM (inactive) | GI50 (SK-MEL-28): > 100 µM (inactive) | GI50 (NCI/ADR-RES): 50.1 µM (inactive) | GI50 (LOX IMVI): 48.3 µM (inactive) | GI50 (SR): 28.8 µM (inactive) | GI50 (RXF 393): > 100 µM (inactive) | GI50 (SK-MEL-5): 49.2 µM (inactive) | GI50 (OVCAR-4): > 100 µM (inactive) | GI50 (RPMI-8226): 23.4 µM (inactive) | GI50 (UACC-62): > 100 µM (inactive) | GI50 (MOLT-4): 75.9 µM (inactive) | GI50 (T47D): > 100 µM (inactive)

Cc1ccc(-c2cn3c(nc4ccccc43)c(/C=C/c3ccco3)n2)cc1
GI50 (NCI-H226): > 100 µM (inactive) | GI50 (SK-OV-3): > 100 µM (inactive) | GI50 (HT-29): > 100 µM (inactive) | GI50 (786-0): 48 µM (inactive) | GI50 (SF-539): > 100 µM (inactive) | GI50 (KM12): 50.1 µM (inactive) | GI50 (UACC-257): 82.6 µM (inactive) | GI50 (UO-31): > 100 µM (inactive) | GI50 (SK-MEL-28): 58.1 µM (inactive) | GI50 (NCI/ADR-RES): > 100 µM (inactive) | GI50 (LOX IMVI): 69.2 µM (inactive) | GI50 (SR): 19.6 µM (inactive) | GI50 (RXF 393): > 100 µM (inactive) | GI50 (SK-MEL-5): 34.8 µM (inactive) | GI50 (OVCAR-4): 56.8 µM (inactive) | GI50 (RPMI-8226): 21 µM (inactive) | GI50 (UACC-62): > 100 µM (inactive) | GI50 (T47D): 71.4 µM (inactive)

COc1cc(C2SC(=N)Nc3c2c(C)nn3C(=O)c2ccc(Cl)cc2)ccc1O (configuration not stated)
GI50 (NCI-H226): > 10 µM (inactive) | GI50 (SK-OV-3): > 10 µM (inactive) | GI50 (HT-29): > 10 µM (inactive) | GI50 (786-0): > 10 µM (inactive) | GI50 (OVCAR-8): > 10 µM (inactive) | GI50 (SF-539): > 10 µM (inactive) | GI50 (KM12): > 10 µM (inactive) | GI50 (UACC-257): > 10 µM (inactive) | GI50 (SK-MEL-28): > 10 µM (inactive) | GI50 (NCI/ADR-RES): > 10 µM (inactive) | GI50 (LOX IMVI): > 10 µM (inactive) | GI50 (SR): > 10 µM (inactive) | GI50 (RXF 393): > 10 µM (inactive) | GI50 (SK-MEL-5): > 10 µM (inactive) | GI50 (OVCAR-4): > 10 µM (inactive) | GI50 (RPMI-8226): > 10 µM (inactive) | GI50 (UACC-62): > 10 µM (inactive) | GI50 (MOLT-4): > 10 µM (inactive) | GI50 (T47D): > 10 µM (inactive)

CCc1ccc2c(c1)/C(=C1/Nc3ccccc3/C1=N/O)C(=O)N2
GI50 (NCI-H226): 12 µM (inactive) | GI50 (SK-OV-3): 2.44 µM (inactive) | GI50 (HT-29): 4.71 µM (inactive) | GI50 (786-0): 6.61 µM (inactive) | GI50 (OVCAR-8): 6.55 µM (inactive) | GI50 (KM12): 0.117 µM (active) | GI50 (UACC-257): 15.2 µM (inactive) | GI50 (UO-31): 4.12 µM (inactive) | GI50 (SK-MEL-28): 12.9 µM (inactive) | GI50 (NCI/ADR-RES): 6.84 µM (inactive) | GI50 (LOX IMVI): 6.76 µM (inactive) | GI50 (SR): 3.29 µM (inactive) | GI50 (RXF 393): 2.81 µM (inactive) | GI50 (SK-MEL-5): 3.7 µM (inactive) | GI50 (OVCAR-4): 6.67 µM (inactive) | GI50 (RPMI-8226): 5.15 µM (inactive) | GI50 (UACC-62): 11 µM (inactive) | GI50 (MOLT-4): 4.3 µM (inactive) | GI50 (T47D): 6.28 µM (inactive)

CCCCNS(=O)(=O)c1n[nH]c(=O)[nH]c1=O
GI50 (NCI-H226): > 100 µM (inactive) | GI50 (SK-OV-3): 17.6 µM (inactive) | GI50 (HT-29): > 100 µM (inactive) | GI50 (786-0): > 100 µM (inactive) | GI50 (OVCAR-8): > 100 µM (inactive) | GI50 (SF-539): > 100 µM (inactive) | GI50 (KM12): > 100 µM (inactive) | GI50 (UO-31): > 100 µM (inactive) | GI50 (SK-MEL-28): > 100 µM (inactive) | GI50 (NCI/ADR-RES): > 100 µM (inactive) | GI50 (LOX IMVI): > 100 µM (inactive) | GI50 (SR): > 100 µM (inactive) | GI50 (RXF 393): > 100 µM (inactive) | GI50 (SK-MEL-5): > 100 µM (inactive) | GI50 (OVCAR-4): > 100 µM (inactive) | GI50 (RPMI-8226): > 100 µM (inactive) | GI50 (UACC-62): > 100 µM (inactive) | GI50 (MOLT-4): > 100 µM (inactive) | GI50 (T47D): > 100 µM (inactive)

CC1OC(n2cc(F)c(=O)[nH]c2=O)C(O[Si](C)(C)C(C)(C)C)C1O[Si](C)(C)C(C)(C)C (configuration not stated)
GI50 (NCI-H226): 16.2 µM (inactive) | GI50 (SK-OV-3): 14.7 µM (inactive) | GI50 (HT-29): 10.8 µM (inactive) | GI50 (786-0): 14.6 µM (inactive) | GI50 (OVCAR-8): 14.7 µM (inactive) | GI50 (SF-539): 12.6 µM (inactive) | GI50 (KM12): 11.9 µM (inactive) | GI50 (UACC-257): 17.7 µM (inactive) | GI50 (UO-31): 12.8 µM (inactive) | GI50 (NCI/ADR-RES): 12.7 µM (inactive) | GI50 (LOX IMVI): 16.2 µM (inactive) | GI50 (SR): 6.03 µM (inactive) | GI50 (RXF 393): 14 µM (inactive) | GI50 (SK-MEL-5): 14.9 µM (inactive) | GI50 (OVCAR-4): 6.41 µM (inactive) | GI50 (RPMI-8226): 11.6 µM (inactive) | GI50 (UACC-62): 14.8 µM (inactive) | GI50 (MOLT-4): 13.2 µM (inactive) | GI50 (T47D): 10.2 µM (inactive)
